Data from US20020137929A1, “1 - (3-heterocyclylphenyl) isothiourea, -isourea, -guanidine and -amidine herbicidal agents” (Intellectual Property Department, BASF Aktiengesellschaft, priority 1998, published 2002).

How the values were obtained:
[1] = tested on: TRZAWR (Wheat, Winter, cv Riband); experiment: Preemergence herbicidal evaluation; format: in vivo, Triticum aestivum; conditions: rated 4-5 weeks after treatment
Method in brief: (§1)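 Sown cups got a single aqueous acetone spray of test compound (roughly 0.0156–0.500 kg/ha) before seedlings emerged. Evaluation, 4–5 weeks on, used a 0–9 visual scale covering plant stand, vigor, size, malformation, chlorosis and general appearance compared with controls.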

[2] = tested on: GLXMAW (Soybean, Williams); experiment: Preemergence herbicidal evaluation; format: in vivo, Glycine max, (L.) Merr. cv Williams; conditions: rated 4-5 weeks after treatment
Method in brief: as §1

ORYSAT (Rice, Tebonnet) = experiment: Preemergence herbicidal evaluation; format: in vivo, Oryza sativa, (L.) Tebonnet; conditions: rated 4-5 weeks after treatment
Method in brief: as §1

CASOB (Sicklepod) = experiment: Postemergence herbicidal evaluation; format: in vivo, Cassia obtusifolia; conditions: postemergence
Method in brief: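 Young plants, roughly two weeks from seeding, receive the active ingredient as a sprayed dispersion (acetone/water 50/50, 0.5% TWEEN 20) at 40 psi. Doses span about 0.0156 to 0.500 kg/ha. A visual score from 0 to 9 compares treated with control plants four to five weeks on.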

[3] = tested on: SAGPY (Arrowhead (Pygmaea)); experiment: Preemergence weed control under flooded paddy conditions; format: in vivo, Sagittaria pygmaea; conditions: rated 3-4 weeks after treatment
Method in brief: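 Silt loam, seeds in top 0.5 cm; flood held 1.5-3 cm; test cpd as acetone/water 50/50 into flood water, ~0.0313-0.500 kg/ha a.i.; greenhouse 3-4 wk; visual 0-9 score vs control.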

[4] = rate 0.0156 kg/ha, rating scale 0-9
[5] = rate 0.0313 kg/ha, rating scale 0-9
[6] = rate 0.0625 kg/ha, rating scale 0-9
[7] = rate 0.1250 kg/ha, rating scale 0-9
[8] = rate 0.2500 kg/ha, rating scale 0-9

| Compound | Preemergence herbicidal rating TRZAWR ([1]; rate 0.0156 kg/ha) | Preemergence herbicidal rating TRZAWR ([1]; rate 0.0313 kg/ha) | Preemergence herbicidal rating TRZAWR ([1]; rate 0.0625 kg/ha) | Preemergence herbicidal rating TRZAWR ([1]; rate 0.1250 kg/ha) | Preemergence herbicidal rating TRZAWR ([1]; rate 0.2500 kg/ha) | Preemergence herbicidal rating GLXMAW ([2]; rate 0.0156 kg/ha) | Preemergence herbicidal rating GLXMAW ([2]; rate 0.0313 kg/ha) | Preemergence herbicidal rating GLXMAW ([2]; rate 0.0625 kg/ha) | Preemergence herbicidal rating GLXMAW ([2]; rate 0.1250 kg/ha) | Preemergence herbicidal rating GLXMAW ([2]; rate 0.2500 kg/ha) | Preemergence herbicidal rating ORYSAT (ORYSAT (Rice, Tebonnet); rate 0.0156 kg/ha) | Preemergence herbicidal rating ORYSAT (ORYSAT (Rice, Tebonnet); rate 0.0313 kg/ha) | Preemergence herbicidal rating ORYSAT (ORYSAT (Rice, Tebonnet); rate 0.0625 kg/ha) | Preemergence herbicidal rating ORYSAT (ORYSAT (Rice, Tebonnet); rate 0.1250 kg/ha) | Preemergence herbicidal rating ORYSAT (ORYSAT (Rice, Tebonnet); rate 0.2500 kg/ha) | Herbicidal rating CASOB (CASOB (Sicklepod); rate 0.0156 kg/ha) | Herbicidal rating CASOB (CASOB (Sicklepod); rate 0.0313 kg/ha) | Herbicidal rating CASOB (CASOB (Sicklepod); rate 0.0625 kg/ha) | herbicidal effect rating, SAGPY ([3]; 0.0313 kg/ha) | herbicidal effect rating, SAGPY ([3]; 0.0625 kg/ha) | other results |
| --- | --- | --- | --- | --- | --- | --- | --- | --- | --- | --- | --- | --- | --- | --- | --- | --- | --- | --- | --- | --- | --- |
| CCOC(=O)CN1C(=O)C(C(=O)OC)SC1=Nc1cc(-n2c(=O)cc(C(F)(F)F)n(C)c2=O)c(F)cc1Cl (centres unmarked) [Compound 128, 5-Carboxy-2-{{2-chloro-5-[3,6-dihydro-3-methyl-2,6-dioxo-4-(trifluoromethyl)-1(2H)-pyrimidinyl]-4-fluorophenyl}imino}-4-oxo-3-thiazolidineacetic acid, 3-ethyl methyl ester] | 0.0 | 0.0 | 0.0 | 0.0 | 0.0 | 0.0 | 0.0 | 0.0 | 0.0 | 0.0 | 0.0 | 0.0 | 0.0 | 0.0 | 0.0 | 1.0 | 1.0 | 7.0 | 0.0 | 3.0 | herbicidal effect rating, SAGPY ([3]; 0.1250 kg/ha): 4.0; herbicidal effect rating, SAGPY ([3]; 0.2500 kg/ha): 6.0 |
| C[C@@H](C(=O)OC(C)(C)C)N1C(=O)CSC1=Nc1cc(-n2c(=O)cc(C(F)(F)F)n(C)c2=O)c(F)cc1Cl [Compound 75, tert-Butyl 2-{{2-chloro-5-[3,6-dihydro-3-methyl-2,6-dioxo-4-(trifluoromethyl)-1(2H)-pyrimidinyl]-4-fluorophenyl}imino}-α-methyl-4-oxo-3-thiazolidineacetate, L-] | 0.0 | 0.0 | 0.0 | 1.0 | 2.0 | 0.0 | 0.0 | 0.0 | 2.0 | 2.0 | 0.0 | 0.0 | 0.0 | 1.0 | 2.0 |  |  |  |  |  | CASOB herbicidal rating (CASOB (Sicklepod); rate 0.0158 kg/ha): 1.0; CASOB herbicidal rating (CASOB (Sicklepod); rate 0.0315 kg/ha): 1.0; CASOB herbicidal rating (CASOB (Sicklepod); rate 0.0630 kg/ha): 3.0; SAGPY herbicidal effect rating ([3]; 0.0313 kg/ha): 0.0; SAGPY herbicidal effect rating ([3]; 0.0625 kg/ha): 0.0; SAGPY herbicidal effect rating ([3]; 0.1250 kg/ha): 0.0; SAGPY herbicidal effect rating ([3]; 0.2500 kg/ha): 3.0 |
| C=C1SC(=Nc2cc(-n3c(=O)cc(C(F)(F)F)n(C)c3=O)c(F)cc2Cl)N(CC(=O)OCC)C1=O [Compound 154] |  |  |  |  |  |  |  |  |  |  |  |  |  |  |  | 0.0 | 0.0 | 1.0 | 2.0 | 4.0 | Preemergence herbicidal rating TRZAWR [1, 4]: 0.0; Preemergence herbicidal rating TRZAWR [1, 5]: 2.0; Preemergence herbicidal rating TRZAWR [1, 6]: 8.0; Preemergence herbicidal rating TRZAWR [1, 7]: 8.0; Preemergence herbicidal rating TRZAWR [1, 8]: 9.0; Preemergence herbicidal rating GLXMAW [2, 4]: 0.0; Preemergence herbicidal rating GLXMAW [2, 5]: 2.0; Preemergence herbicidal rating GLXMAW [2, 6]: 5.0; Preemergence herbicidal rating GLXMAW [2, 8]: 8.0; Preemergence herbicidal rating ORYSAT (ORYSAT (Rice, Tebonnet); [4]): 3.0; Preemergence herbicidal rating ORYSAT (ORYSAT (Rice, Tebonnet); [5]): 4.0; Preemergence herbicidal rating ORYSAT (ORYSAT (Rice, Tebonnet); [6]): 8.0; Preemergence herbicidal rating ORYSAT (ORYSAT (Rice, Tebonnet); [7]): 9.0; Preemergence herbicidal rating ORYSAT (ORYSAT (Rice, Tebonnet); [8]): 9.0; herbicidal effect rating, SAGPY ([3]; 0.1250 kg/ha): 5.0; herbicidal effect rating, SAGPY ([3]; 0.2500 kg/ha): 6.0 |
